Experimental data published in patent US20060188913A1, “Methods and products for enhancing immune responses using imidazoquinoline compounds” (University of Iowa Research Foundation, priority 2001, published 2006).

Legend:
hTLR8 [1] = biological target: T1, hTLR8 (Homo sapiens, UniProt Q9NR97); assay: IL-8 production in 293 fibroblasts transiently expressing hTLR8; assay type: cell-based; conditions: CpG-ODN 2 μM, LPS 100 ng/ml
T1 construct: plasmids (pcDNA3.1 constructs) coding for full length hTLR2, hTLR7, hTLR8 and hTLR9; expressed in transfected cells; host or cells: 293T cells
T1 sequence (Q9NR97 27-1041): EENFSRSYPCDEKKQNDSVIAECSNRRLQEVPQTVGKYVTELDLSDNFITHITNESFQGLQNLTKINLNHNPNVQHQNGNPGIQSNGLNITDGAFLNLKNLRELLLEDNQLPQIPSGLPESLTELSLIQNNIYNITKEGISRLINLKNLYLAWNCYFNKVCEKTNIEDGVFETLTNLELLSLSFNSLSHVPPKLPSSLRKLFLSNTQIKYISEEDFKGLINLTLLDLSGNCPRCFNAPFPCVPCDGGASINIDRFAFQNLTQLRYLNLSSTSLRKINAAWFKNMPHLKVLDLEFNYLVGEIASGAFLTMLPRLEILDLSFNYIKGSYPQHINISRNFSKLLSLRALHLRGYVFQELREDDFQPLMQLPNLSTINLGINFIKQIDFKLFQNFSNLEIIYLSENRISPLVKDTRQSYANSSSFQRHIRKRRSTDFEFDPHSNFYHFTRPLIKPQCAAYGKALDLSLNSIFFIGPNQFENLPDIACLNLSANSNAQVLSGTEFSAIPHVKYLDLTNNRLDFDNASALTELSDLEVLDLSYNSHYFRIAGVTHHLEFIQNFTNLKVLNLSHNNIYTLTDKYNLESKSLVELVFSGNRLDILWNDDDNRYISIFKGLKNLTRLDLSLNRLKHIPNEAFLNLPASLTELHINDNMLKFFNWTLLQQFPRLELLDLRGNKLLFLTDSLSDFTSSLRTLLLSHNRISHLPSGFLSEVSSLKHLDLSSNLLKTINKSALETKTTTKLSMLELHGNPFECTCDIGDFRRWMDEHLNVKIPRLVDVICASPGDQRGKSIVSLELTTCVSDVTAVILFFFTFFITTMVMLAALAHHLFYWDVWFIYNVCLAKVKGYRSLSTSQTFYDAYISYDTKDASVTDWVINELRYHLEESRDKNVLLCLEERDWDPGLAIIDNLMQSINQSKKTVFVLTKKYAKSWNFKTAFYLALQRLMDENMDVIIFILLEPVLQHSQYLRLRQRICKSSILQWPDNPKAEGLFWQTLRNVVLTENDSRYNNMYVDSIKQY
Description: (§1) The cloned human TLR7 and human TLR8 cDNA were cloned into the expression vector pCDNA3. 1 (−) from Invitrogen using the NotI site. Utilizing a “gain of function” assay, hTLR7 and hTLR8 expression vectors were transiently expressed in human 293 fibroblasts (ATCC, CRL-1573) using the calcium phosphate method. Activation was monitored by IL-8 production after stimulus with CpG-ODN (2006 or 1668, 2 μM) or LPS (100 ng/ml).

hTLR7 [2] = biological target: T2, hTLR7 (Homo sapiens, UniProt Q9NYK1); assay: NF-kappa B luciferase activation in 293T cells transiently transfected with hTLR7; assay type: cell-based; conditions: hTLR7-transfected 293T cells
T2 construct: plasmids (pcDNA3.1 constructs) coding for full length hTLR2, hTLR7, hTLR8 and hTLR9; expressed in transfected cells; host or cells: 293T cells
T2 sequence (Q9NYK1 27-1049): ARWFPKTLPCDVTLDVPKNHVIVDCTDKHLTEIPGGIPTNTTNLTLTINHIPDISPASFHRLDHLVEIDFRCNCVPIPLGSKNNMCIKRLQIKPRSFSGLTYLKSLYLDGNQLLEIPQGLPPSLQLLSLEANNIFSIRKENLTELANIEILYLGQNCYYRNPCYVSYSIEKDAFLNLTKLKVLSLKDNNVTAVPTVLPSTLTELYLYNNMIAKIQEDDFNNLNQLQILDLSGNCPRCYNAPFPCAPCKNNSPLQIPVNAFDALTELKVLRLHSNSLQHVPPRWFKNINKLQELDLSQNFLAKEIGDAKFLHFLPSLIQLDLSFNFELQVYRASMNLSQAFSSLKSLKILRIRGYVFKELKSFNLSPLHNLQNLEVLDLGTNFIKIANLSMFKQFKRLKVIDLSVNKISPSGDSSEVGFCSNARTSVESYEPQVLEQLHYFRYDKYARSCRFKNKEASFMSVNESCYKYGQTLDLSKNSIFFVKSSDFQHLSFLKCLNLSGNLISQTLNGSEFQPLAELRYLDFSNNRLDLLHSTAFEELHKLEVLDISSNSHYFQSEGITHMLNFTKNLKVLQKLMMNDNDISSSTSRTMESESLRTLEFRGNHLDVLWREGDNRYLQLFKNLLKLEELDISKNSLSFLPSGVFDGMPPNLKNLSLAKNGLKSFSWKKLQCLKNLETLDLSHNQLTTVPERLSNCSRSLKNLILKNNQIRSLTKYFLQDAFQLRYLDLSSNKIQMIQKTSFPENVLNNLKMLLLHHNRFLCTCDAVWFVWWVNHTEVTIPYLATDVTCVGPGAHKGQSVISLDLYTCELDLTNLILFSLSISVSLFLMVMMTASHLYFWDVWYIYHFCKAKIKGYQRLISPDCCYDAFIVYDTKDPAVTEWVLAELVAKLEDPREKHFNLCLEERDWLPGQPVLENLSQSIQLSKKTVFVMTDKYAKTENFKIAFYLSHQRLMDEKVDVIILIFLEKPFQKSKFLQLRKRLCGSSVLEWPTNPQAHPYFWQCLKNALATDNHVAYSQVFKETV
Description: (§2) Cells used for transfections were 293T (human embryo kidney cells, T-antigen transfected) or 293-TLR9-Luc (stable transfectants, human embryo kidney cells expressing the human TLR9 receptor and containing a genomic NF-kappa B-luciferase cassette).
(§3) Transfections were performed in six-well plates. Cells were plated the day before transfection at 4×10^5/well in DMEM+10% FCS.
(§4) Constructs: TLR cDNAs were cloned into pcDNA3.1. NF-kappa B activation was measured by using an 5× NF-kappa B-Luciferase construct (Stratagene). Transfection efficiency was determined by using a beta-galactosidase (beta-gal) reporter construct (p beta-Gal-Control, Clontech).
(§5) Stimulation was performed 24 h after transfection. Medium of the cells was reduced to 1 ml (without medium change) and cells were stimulated with indicated amounts of R-848, LPS, ODN 8954, 2006 and IL-1 beta for 16 h.
(§6) Cell extracts were prepared by lysing the cells in 100 μl reporter lysis buffer using the freeze-thaw method. NF-kappa B stimulation was measured through luciferase activity (Promega). All data were normalized for beta-gal expression. Stimulation indices were calculated in reference to luciferase activity of medium without addition of ODN.
(§7) 293T cells, stably transfected with a NF-kappa B-luciferase reporter construct, were transiently transfected with plasmids (pcDNA3.1 constructs) coding for full length hTLR2, hTLR7, hTLR8 and hTLR9. […]

hTLR8 [3] = biological target: T1, hTLR8; assay: NF-kappa B luciferase activation in 293T cells transiently transfected with hTLR8; assay type: cell-based; conditions: hTLR8-transfected 293T cells
Description: as §2, §3, §4, §5, §6, §7

hTLR7 [4] = biological target: T2, hTLR7; assay: IL-8 production in 293 fibroblasts transiently expressing hTLR7; assay type: cell-based; conditions: CpG-ODN 2 μM, LPS 100 ng/ml
Description: as §1

hTLR2 = biological target: T3, hTLR2 (Homo sapiens, UniProt O60603); assay: NF-kappa B luciferase activation in 293T cells transfected with hTLR2; assay type: cell-based
T3 construct: plasmids (pcDNA3.1 constructs) coding for full length hTLR2, hTLR7, hTLR8 and hTLR9; expressed in transfected cells; host or cells: 293T cells carrying an NF-kappa B-luciferase reporter
Description: as §2, §3, §4, §5, §6, §7

[5] = system: NF-kappa B luciferase reporter gene; assay: NF-kappa B luciferase reporter in transfected 293T cells, TLR-independent positive control; assay type: cell-based, human; conditions: FIG. 2A
Description: as §2, §5, §6
293T cells, stably transfected with a NF-kappa B-luciferase reporter construct, were transiently transfected with plasmids (pcDNA3.1 constructs) coding for full length hTLR2, hTLR7, hTLR8 and hTLR9. All transfections were normalized to beta-galactosidase activity. Twenty-four hours following transfection, cells were stimulated with R-848, LPS, CpG ODN 8954 (5′ […] 3′, SEQ ID NO:4), CpG ODN 2006, or IL-1 and then assayed for luciferase activity 16 h after stimulation. Each experiment was done at least twice with similar results.

human PBMC [6] = assay: IFN-gamma secretion by human PBMC (ELISA); assay type: cell-based; conditions: 48 hours, compared to R-848, not shown
Description: (§8) This experiment investigated the induction of the Th1 cytokine IFN-gamma as well as the Th1-related chemokine IP-10 (IFN-gamma inducible protein). Unfractionated human PBMC from three donors were incubated for 48 hours in the presence of varying concentrations of R-848 (0.01-1.0 μg/ml), varying concentrations of CpG ODN 2006 (0.2-3.0 μg/ml), varying concentrations of negative control ODN 5177 (0.2-3.0 μg/ml), SEB (50 ng/ml), or media alone, and then the concentrations of IP-10 and IFN-gamma in the supernatant were measured by ELISA.

human PBMC [7] = assay: IP-10 secretion by human PBMC (ELISA); assay type: cell-based; conditions: 48 hours, ODN 0.2-3.0 μg/ml versus R-848 0.01-1.0 μg/ml, FIG. 6A
Description: as §8
In FIG. 6B, the combined effects of R-848 and CpG ODN (e.g., #2006) on IP-10 secretion are shown. Human PBMCs from three different donors were incubated for 48 hours with the indicated concentrations of ODNs and R-848, either individually or together. Supernatants were harvested and IP-10 was measured by ELISA. The data represent mean cytokine amounts.

T3 sequence (O60603 21-784): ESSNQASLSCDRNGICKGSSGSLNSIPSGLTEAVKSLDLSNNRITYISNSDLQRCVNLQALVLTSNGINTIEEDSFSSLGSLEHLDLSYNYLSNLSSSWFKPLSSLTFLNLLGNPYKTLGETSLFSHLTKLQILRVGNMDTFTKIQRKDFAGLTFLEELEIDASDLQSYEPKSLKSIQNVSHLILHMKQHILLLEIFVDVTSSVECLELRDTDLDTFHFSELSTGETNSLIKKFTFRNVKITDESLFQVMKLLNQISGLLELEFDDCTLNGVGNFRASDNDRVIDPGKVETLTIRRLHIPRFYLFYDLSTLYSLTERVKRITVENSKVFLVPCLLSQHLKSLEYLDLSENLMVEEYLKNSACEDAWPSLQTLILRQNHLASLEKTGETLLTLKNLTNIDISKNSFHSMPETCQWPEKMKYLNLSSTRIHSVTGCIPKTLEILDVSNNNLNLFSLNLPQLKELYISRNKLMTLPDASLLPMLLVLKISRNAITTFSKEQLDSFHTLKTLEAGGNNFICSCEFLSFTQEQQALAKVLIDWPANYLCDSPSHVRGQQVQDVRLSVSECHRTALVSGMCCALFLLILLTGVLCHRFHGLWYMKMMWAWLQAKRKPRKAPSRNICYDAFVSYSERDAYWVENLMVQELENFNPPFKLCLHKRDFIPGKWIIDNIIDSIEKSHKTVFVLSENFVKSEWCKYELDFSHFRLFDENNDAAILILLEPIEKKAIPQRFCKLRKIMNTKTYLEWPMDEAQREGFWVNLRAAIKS

Substance | activation monitored by IL-8 production (hTLR8 [1]) | NF-kappa B activation through hTLR7 (in words) (hTLR7 [2]) | NF-kappa B activation through hTLR8 (in words) (hTLR8 [3]) | activation monitored by IL-8 production (hTLR7 [4]) | further results
lipopolysaccharide [LPS] | None of the stimuli used activated | Neither LPS nor the CpG ODN 8954 appeared to activate | Neither LPS nor the CpG ODN 8954 appeared to activate | None of the stimuli used activated | NF-kappa B activation through hTLR2 (in words) (hTLR2): activated by LPS
1668: CpG-ODN TCCATGACGTTCCTGATGCT, SEQ ID NO:12 (listed as DNA, chemistry not fully specified) [compound 1668] | None of the stimuli used activated | – | – | None of the stimuli used activated | –
IL-1: cytokine used as positive control for NF-kappa B activation | – | – | – | – | activation of NF-kappa B luciferase reporter gene (in words) [5]: activated the NF-kappa B luciferase reporter gene in a TLR-independent manner
ODN 5177: negative control ODN 5′ TCCGCCTGTGACATGCATT 3′; SEQ ID NO:5 (listed as DNA, chemistry not fully specified) | – | – | – | – | IFN-gamma induction (human PBMC [6]): The same result was obtained; IP-10 induction (human PBMC [7]): but not the negative control ODN 5177 induced similar amounts of IP-10
CpG ODN 8954: CpG ODN 5′ GGGGACGACGTCGTGGGGGGG 3′, SEQ ID NO:4 (listed as DNA, chemistry not fully specified) | – | Neither LPS nor the CpG ODN 8954 appeared to activate | Neither LPS nor the CpG ODN 8954 appeared to activate | – | –
